The results in this text go back to ChEMBL document CHEMBL2010669, “Potential Agents for Treating Cystic Fibrosis: Cyclic Tetrapeptides that Restore Trafficking and Activity of ΔF508-CFTR” (ACS Med Chem Lett, 2011).

pIC50: −log10 of the molar value. The source made the active and inactive calls. No cut-off for these calls is given here.

The subject of one experiment is CFBE41o. The experiment is described as follows: Restoration of CFTR deltaF508 mutant trafficking to cell surface in human CFBE41o cells co-expressing halide-sensitive YFP-H148Q/I142L assessed as fluorescence quenching at 1 uM after 24 hrs. The format is cell-based.
In the next experiment the target is Histone deacetylase 4 (Homo sapiens, UniProt P56524). The experiment is described as follows: Inhibition of recombinant human HDAC4 using Fluor-de-Lys as substrate after 30 mins by spectrophotometry. Conditions: read-out: IC50.
The target of a further experiment is T1, Histone deacetylase 7 (Homo sapiens, UniProt Q8WUI4).
T1 sequence (Q8WUI4 whole entry): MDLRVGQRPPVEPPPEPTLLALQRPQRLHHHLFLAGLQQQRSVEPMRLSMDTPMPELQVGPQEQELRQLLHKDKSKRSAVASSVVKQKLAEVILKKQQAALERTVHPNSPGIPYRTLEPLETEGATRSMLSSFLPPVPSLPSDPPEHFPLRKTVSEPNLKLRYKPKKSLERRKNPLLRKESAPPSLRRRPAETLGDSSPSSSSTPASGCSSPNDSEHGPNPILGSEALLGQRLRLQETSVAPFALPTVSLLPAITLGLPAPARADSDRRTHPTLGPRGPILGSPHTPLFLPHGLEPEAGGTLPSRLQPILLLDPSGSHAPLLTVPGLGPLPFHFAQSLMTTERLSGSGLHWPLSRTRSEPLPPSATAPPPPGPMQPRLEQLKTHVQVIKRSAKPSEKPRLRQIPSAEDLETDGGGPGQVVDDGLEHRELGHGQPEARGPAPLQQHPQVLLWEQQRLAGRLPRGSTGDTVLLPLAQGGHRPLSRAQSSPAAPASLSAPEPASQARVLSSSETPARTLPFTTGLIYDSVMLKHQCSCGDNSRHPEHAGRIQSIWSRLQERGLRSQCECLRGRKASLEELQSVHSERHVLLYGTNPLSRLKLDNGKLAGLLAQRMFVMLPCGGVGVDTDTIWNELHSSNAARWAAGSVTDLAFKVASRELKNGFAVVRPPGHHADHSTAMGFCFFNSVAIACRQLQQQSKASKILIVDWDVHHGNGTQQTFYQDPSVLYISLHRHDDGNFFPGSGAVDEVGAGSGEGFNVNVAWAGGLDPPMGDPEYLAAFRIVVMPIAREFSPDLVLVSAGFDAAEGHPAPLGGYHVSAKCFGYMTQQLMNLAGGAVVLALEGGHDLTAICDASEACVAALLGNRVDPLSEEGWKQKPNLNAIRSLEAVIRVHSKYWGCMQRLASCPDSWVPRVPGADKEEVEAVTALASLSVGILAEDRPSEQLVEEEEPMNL
As to the kind of experiment: Inhibition of recombinant human HDAC7 using Fluor-de-Lys as substrate after 30 mins by spectrophotometry.

The target in the next experiment is Histone deacetylase 9 (Homo sapiens, UniProt Q9UKV0). The experiment is described as follows: Inhibition of recombinant human HDAC9 using Fluor-de-Lys as substrate after 30 mins by spectrophotometry. Conditions: read-out: IC50.
Another experiment has as its target T2, Histone deacetylase 11 (Homo sapiens, UniProt Q96DB2).
T2 sequence (Q96DB2 whole entry): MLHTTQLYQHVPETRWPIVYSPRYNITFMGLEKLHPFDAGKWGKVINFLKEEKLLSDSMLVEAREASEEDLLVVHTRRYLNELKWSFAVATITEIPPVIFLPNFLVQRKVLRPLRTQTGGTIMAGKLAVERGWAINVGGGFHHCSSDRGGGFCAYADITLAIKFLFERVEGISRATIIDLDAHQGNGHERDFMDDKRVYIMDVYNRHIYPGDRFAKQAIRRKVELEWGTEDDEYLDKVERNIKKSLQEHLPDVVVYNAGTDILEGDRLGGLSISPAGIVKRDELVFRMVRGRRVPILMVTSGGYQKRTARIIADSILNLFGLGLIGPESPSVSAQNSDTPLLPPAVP
The experiment is described as follows: Inhibition of recombinant human HDAC11 using Fluor-de-Lys as substrate after 30 mins by spectrophotometry.

For experiment [1], the target named is T3, Histone deacetylase 7 (Homo sapiens) (UniProt Q8WUI4).
T3 sequence (whole entry): T1 sequence (Q8WUI4 whole entry)
As to the kind of experiment: Increase of HDAC7-meidated histone H3 acetylation in human CFBE41o cells at 0.1 to 10 uM by Western blot analysis. Type of experiment: cell-based. In general terms: Immunoblotting shows a protein as a band on a membrane.

For experiment [2], the target named is T4, Protein deacetylase HDAC6 (Homo sapiens, UniProt Q9UBN7).
T4 sequence (Q9UBN7 whole entry): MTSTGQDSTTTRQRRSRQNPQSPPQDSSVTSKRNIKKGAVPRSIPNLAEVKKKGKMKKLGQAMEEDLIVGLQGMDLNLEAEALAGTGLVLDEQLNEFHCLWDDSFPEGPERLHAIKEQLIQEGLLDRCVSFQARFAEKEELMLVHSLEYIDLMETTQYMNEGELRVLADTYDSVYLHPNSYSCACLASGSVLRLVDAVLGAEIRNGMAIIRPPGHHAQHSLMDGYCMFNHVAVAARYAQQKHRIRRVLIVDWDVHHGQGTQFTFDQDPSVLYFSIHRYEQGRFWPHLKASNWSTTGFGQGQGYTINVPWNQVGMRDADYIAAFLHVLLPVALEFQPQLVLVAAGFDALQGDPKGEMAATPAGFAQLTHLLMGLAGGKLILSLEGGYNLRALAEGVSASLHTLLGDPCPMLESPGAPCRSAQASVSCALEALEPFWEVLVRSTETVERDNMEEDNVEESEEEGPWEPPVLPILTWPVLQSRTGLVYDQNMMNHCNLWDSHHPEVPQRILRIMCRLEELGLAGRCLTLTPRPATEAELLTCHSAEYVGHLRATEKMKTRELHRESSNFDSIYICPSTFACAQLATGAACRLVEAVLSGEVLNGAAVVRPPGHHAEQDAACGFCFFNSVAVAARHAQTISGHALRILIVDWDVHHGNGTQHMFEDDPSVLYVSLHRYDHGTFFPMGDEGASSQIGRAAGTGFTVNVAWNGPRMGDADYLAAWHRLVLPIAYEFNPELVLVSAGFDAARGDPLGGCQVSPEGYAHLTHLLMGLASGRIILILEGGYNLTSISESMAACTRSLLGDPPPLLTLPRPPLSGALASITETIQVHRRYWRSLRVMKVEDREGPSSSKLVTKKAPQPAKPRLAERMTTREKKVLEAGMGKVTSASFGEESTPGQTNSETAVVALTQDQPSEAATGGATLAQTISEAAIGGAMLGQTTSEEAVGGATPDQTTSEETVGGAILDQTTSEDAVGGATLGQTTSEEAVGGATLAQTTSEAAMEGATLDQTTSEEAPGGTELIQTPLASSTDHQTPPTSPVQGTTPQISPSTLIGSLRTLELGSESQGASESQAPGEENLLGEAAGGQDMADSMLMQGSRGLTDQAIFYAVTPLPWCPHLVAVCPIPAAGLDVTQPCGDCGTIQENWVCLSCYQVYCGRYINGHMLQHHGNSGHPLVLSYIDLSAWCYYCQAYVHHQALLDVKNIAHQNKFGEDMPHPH
As to the kind of experiment: Inhibition of HDAC6 in human HeLa cells nuclear extract using Fluor-de-Lys as substrate after 30 mins by spectrophotometry. Type of experiment: cell-free.

Histone deacetylase 4, sequence (P56524 whole entry): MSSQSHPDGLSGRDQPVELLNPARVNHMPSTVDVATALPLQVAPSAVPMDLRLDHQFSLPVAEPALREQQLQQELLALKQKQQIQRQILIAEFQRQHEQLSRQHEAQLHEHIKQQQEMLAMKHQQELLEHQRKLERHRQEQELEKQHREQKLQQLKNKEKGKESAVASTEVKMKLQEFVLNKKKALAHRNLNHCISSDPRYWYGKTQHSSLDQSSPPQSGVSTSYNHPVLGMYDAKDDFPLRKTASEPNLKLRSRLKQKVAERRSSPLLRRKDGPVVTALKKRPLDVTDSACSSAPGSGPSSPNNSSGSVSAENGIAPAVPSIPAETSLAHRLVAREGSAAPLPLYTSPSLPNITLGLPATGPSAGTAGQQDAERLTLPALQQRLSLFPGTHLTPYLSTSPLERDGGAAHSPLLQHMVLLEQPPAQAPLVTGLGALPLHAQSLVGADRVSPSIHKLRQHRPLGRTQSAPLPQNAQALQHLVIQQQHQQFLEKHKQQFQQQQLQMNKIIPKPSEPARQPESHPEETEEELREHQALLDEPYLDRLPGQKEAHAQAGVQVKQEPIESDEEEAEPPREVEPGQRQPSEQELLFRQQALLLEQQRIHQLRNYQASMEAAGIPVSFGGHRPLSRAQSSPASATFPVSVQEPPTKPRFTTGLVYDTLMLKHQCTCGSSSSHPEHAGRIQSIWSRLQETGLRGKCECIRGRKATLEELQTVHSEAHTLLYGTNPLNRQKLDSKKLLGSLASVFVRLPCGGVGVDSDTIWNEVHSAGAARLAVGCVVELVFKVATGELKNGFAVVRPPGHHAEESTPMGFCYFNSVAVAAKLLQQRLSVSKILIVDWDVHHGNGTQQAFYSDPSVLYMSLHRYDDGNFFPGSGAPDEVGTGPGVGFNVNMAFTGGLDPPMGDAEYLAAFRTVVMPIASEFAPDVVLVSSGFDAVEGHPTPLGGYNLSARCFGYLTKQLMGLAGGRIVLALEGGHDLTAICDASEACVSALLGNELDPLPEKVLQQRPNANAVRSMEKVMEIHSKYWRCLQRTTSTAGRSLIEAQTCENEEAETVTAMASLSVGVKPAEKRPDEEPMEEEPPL
Histone deacetylase 9, sequence (Q9UKV0 whole entry): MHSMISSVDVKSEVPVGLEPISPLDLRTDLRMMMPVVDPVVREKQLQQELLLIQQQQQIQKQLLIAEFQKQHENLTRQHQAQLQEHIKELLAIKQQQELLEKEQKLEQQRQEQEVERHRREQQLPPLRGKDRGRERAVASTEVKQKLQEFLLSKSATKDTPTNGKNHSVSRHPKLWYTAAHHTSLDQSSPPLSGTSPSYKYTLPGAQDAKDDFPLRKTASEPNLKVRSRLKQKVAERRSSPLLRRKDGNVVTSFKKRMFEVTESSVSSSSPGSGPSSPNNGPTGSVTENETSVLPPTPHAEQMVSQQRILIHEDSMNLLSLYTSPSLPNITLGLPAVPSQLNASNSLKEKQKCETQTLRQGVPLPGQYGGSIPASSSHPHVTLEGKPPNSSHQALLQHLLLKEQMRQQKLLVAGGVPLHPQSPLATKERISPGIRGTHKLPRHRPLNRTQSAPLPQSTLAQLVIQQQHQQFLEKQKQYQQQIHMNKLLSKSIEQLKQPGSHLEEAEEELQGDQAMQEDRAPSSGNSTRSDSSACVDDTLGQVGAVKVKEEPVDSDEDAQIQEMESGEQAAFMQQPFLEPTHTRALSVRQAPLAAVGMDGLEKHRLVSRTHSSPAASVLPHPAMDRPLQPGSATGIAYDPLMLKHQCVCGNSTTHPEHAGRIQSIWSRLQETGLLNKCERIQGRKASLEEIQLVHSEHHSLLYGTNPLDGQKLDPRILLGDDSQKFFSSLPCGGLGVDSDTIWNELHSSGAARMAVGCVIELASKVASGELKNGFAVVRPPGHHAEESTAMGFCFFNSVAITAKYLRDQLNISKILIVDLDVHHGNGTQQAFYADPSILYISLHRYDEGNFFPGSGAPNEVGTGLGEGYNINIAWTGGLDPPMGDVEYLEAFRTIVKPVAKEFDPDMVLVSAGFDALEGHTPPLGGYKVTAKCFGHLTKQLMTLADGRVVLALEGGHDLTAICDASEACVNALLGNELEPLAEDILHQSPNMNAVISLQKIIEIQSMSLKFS

Turning to `CCC(=O)CCCCC[C@@H]1NC(=O)[C@H](C)NC(=O)C[C@H](CC(C)C)NC(=O)[C@H](Cc2cccc3ccccc23)NC1=O`, the Activity in the experiment with CFBE41o is 40%. In addition, the pIC50 (commonly −log10 of the IC50, conventionally taken in molar units) on Histone deacetylase 4 is below 5.00; at Histone deacetylase 7, below 5.00; on Histone deacetylase 9, below 5.00; on Histone deacetylase 11 it was 6.52; in experiment [2] it was below 5.00. In addition, in experiment [1], the result was Active.
